From patent publication US20260308172A1, “TRICYCLIC COMPOUNDS FOR TREATMENT OF BACTERIAL INFECTIONS” (priority 2023, published 2026)
In brackets after ≈: the same amount, converted by molar mass.

Key:
[1] = system: Escherichia coli ATCC 25922; assay: Minimal Inhibitory Concentration (MIC) assay, Escherichia coli ATCC 25922; type: cell-based; settings: ATCC25922, 20 h, read-out: MIC Escherichia coli ATCC25922
In short: (§1)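 Broth microdilution in cation-adjusted Mueller Hinton broth with 2-fold serial compound dilutions, inoculum 5×10^5 CFU/mL. Plates incubated 20 h at 35 °C in ambient air. MIC (μg/mL) is the lowest concentration preventing visible growth; K. pneumoniae 43816 is a rifampin-resistant mutant.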

[2] = system: Klebsiella pneumonia ATCC 43816; assay: Minimal Inhibitory Concentration (MIC) assay, Klebsiella pneumonia ATCC 43816; type: cell-based; settings: Klebsiella pneumoniae, ATCC43816, 20 h, read-out: MIC Klebsiella pneumoniae ATCC43816
In short: as §1

[3] = Human Microsome Stability Assay; type: in vitro ADME; settings: 1 μM compound, 0.5 mg/mL liver microsomal protein, 1 mM NADPH, pH 7.4, 37° C., 0-30 minutes; for CLint scaled at 1 µM: human, liver microsomes, read-out: Clearance of Human microsome
Method: The human microsomal stability assay is used for early assessment of metabolic stability of compounds of present invention in human liver microsomes. Human liver microsomes (Cat. NO.: 452117, Corning, USA) were pre-incubated with test compound for 10 minutes at 37° C. in 100 mM potassium phosphate buffer, pH 7.4. The reactions were initiated by adding NADPH regenerating system. The final incubation mixtures contained 1 μM compound, 0.5 mg/mL liver microsomal protein, 1 mM MgCl2 and 1 mM NADPH in 100 mM potassium phosphate buffer, pH 7.4. After incubation times of 0, 3, 6, 9, 15 and 30 minutes at 37° C., 300 μL of cold acetonitrile (including internal standard) was added to 100 μL incubation mixture to terminate the reaction. Following precipitation and centrifugation, the amount of compound remaining in the samples were determined by LC-MS/MS. Controls of no NADPH regenerating system at zero and 30 minutes were also prepared and analyzed.

[4] = system: efflux-deficient E. coli strains; settings: in words; Bioorganic Chemistry 102 (2020) 104055; cited from earlier work
[5] = system: LPS synthesis pathway; settings: in words; Bioorganic Chemistry 102 (2020) 104055; cited from earlier work

Structure (SMILES)	MIC [1] [µg/mL]	MIC [2] [µg/mL]	CLint scaled at 1 µM [3] [mL/min/kg]	antibiotic activity against efflux-deficient E. coli strains [4]	LPS synthesis pathway inhibition activity [5]	Clearance of Human microsome [3] [mL/min/kg]
CC(=O)N1CCc2cc(S(=O)(=O)N3CCN(c4cc(Cl)cc(C(F)(F)F)c4)CC3)ccc21 [Compound F-1, reference compound]	> 24	> 24	14	displaying antibiotic activity against efflux-deficient E. coli strains	having LPS synthesis pathway inhibition activity	
Cc1cc(C(F)(F)F)nc(N2CCN(S(=O)(=O)c3ccc4c(c3)OC[C@H]3[C@@H](CN)OC(=O)N43)CC2)n1 (relative stereo) [Example 006]	0.44 (≈ 0.833 µM)	0.88 (≈ 1.67 µM)	12.5			
NCCN1CCC(C(F)(F)c2cc(Cl)nc(N3CCN(S(=O)(=O)c4ccc5c(c4)OC[C@@H]4[C@H](CO)OC(=O)N54)CC3)c2)CC1 [Example 055, (3R,3aR)-7-[4-[4-[[1-(2-aminoethyl)-4-piperidyl]-difluoro-methyl]-6-chloro-2-pyridyl]piperazin-1-yl]sulfonyl-3-(hydroxymethyl)-3a,4-dihydro-3H-oxazolo[4,3-c][1,4]benzoxazin-1-one]	0.3 (≈ 0.457 µM)	0.3 (≈ 0.457 µM)	7.8			
NCCCNC(=O)[C@H]1CC[C@H](C(F)(F)c2cc(Cl)nc(N3CCN(S(=O)(=O)c4ccc5c(c4)OC[C@@H]4[C@H](CO)OC(=O)N54)CC3)c2)CC1 [Example 046, 4-[[2-[4-[[(3R,3aR)-3-(hydroxymethyl)-1-oxo-3a,4-dihydro-3H-oxazolo[4,3-c][1,4]benzoxazin-7-yl]sulfonyl]piperazin-1-yl]-6-chloro-4-pyridyl]-difluoro-methyl]-N-(3-aminopropyl)cyclohexanecarboxamide]	0.32 (≈ 0.449 µM)	0.32 (≈ 0.449 µM)				6.2
O=C1O[C@H](CO)[C@@H]2COc3cc(S(=O)(=O)N4CCN(c5cc(C(F)(F)C6CCCNC6)cc(Cl)n5)CC4)ccc3N12 (relative stereo) [Example 033]	1 (≈ 1.63 µM)	1.55 (≈ 2.52 µM)	13.6			
NCCC(=O)N1CCC(C(F)(F)c2cc(Cl)nc(N3CCN(S(=O)(=O)c4ccc5c(c4)OC[C@@H]4[C@H](CO)OC(=O)N54)CC3)c2)CC1 [Example 054, (3R,3aR)-7-[4-[4-[[1-(3-aminopropanoyl)-4-piperidyl]-difluoro-methyl]-6-chloro-2-pyridyl]piperazin-1-yl]sulfonyl-3-(hydroxymethyl)-3a,4-dihydro-3H-oxazolo[4,3-c][1,4]benzoxazin-1-one]	0.62 (≈ 0.905 µM)	0.62 (≈ 0.905 µM)	6.4			
Cc1cc(C(F)(F)F)nc(N2CCN(S(=O)(=O)c3ccc4c(c3)OC[C@H]3[C@@H](CN5CC(CN)C5)OC(=O)N43)CC2)n1 [Example 026, (3R,3aS)-3-[[3-(aminomethyl)azetidin-1-yl]methyl]-7-[4-[4-methyl-6-(trifluoromethyl)pyrimidin-2-yl]piperazin-1-yl]sulfonyl-3a,4-dihydro-3H-oxazolo[4,3-c][1,4]benzoxazin-1-one]	1.1 (≈ 1.84 µM)	1.67 (≈ 2.79 µM)	10.8			
NCCN(CCN)CC(=O)N1CCC(C(F)(F)c2cc(Cl)nc(N3CCN(S(=O)(=O)c4ccc5c(c4)OC[C@@H]4[C@H](CO)OC(=O)N54)CC3)c2)CC1 [Example 052, (3R,3aR)-7-[4-[4-[[1-[2-[bis(2-aminoethyl)amino]acetyl]-4-piperidyl]-difluoro-methyl]-6-chloro-2-pyridyl]piperazin-1-yl]sulfonyl-3-(hydroxymethyl)-3a,4-dihydro-3H-oxazolo[4,3-c][1,4]benzoxazin-1-one]	0.68 (≈ 0.898 µM)	1.36 (≈ 1.8 µM)	6.4			
C[N@@+]1(CC(N)=O)CCC[C@H]1C(=O)N[C@H]1CC[C@H](C(F)(F)c2cc(Cl)nc(N3CCN(S(=O)(=O)c4ccc5c(c4)OC[C@@H]4[C@H](CN)OC(=O)N54)CC3)c2)CC1 [Example 060, (1S,2S)—N-[4-[[2-[4-[[(3S,3aR)-3-(aminomethyl)-1-oxo-3a,4-dihydro-3H-oxazolo[4,3-c][1,4]benzoxazin-7-yl]sulfonyl]piperazin-1-yl]-6-chloro-4-pyridyl]-difluoro-methyl]cyclohexyl]-1-(2-amino-2-oxo-ethyl)-1-methyl-pyrrolidin-1-ium-2-carboxamide; chloride]	0.51	0.51				6.2
O=C1O[C@H](CO)[C@H]2COc3cc(S(=O)(=O)N4CCN(c5cc(C(F)(F)C6CCNCC6)cc(Cl)n5)CC4)ccc3N12 [Example 037, (3S,3aR)-7-[4-[6-chloro-4-[difluoro(4-piperidyl)methyl]-2-pyridyl]piperazin-1-yl]sulfonyl-3-(hydroxymethyl)-3a,4-dihydro-3H-oxazolo[4,3-c][1,4]benzoxazin-1-one]	1.1 (≈ 1.79 µM)	1.14 (≈ 1.86 µM)	10.9			
NCCCNC(=O)/C=C/C(F)(F)c1cc(Cl)nc(N2CCN(S(=O)(=O)c3ccc4c(c3)OC[C@@H]3[C@H](CO)OC(=O)N43)CC2)c1 [Example 044, (E)-4-[2-[4-[[(3R,3aR)-3-(hydroxymethyl)-1-oxo-3a,4-dihydro-3H-oxazolo[4,3-c][1,4]benzoxazin-7-yl]sulfonyl]piperazin-1-yl]-6-chloro-4-pyridyl]-N-(3-aminopropyl)-4,4-difluoro-but-2-enamide]	2.4 (≈ 3.65 µM)	2.41 (≈ 3.67 µM)	7			
Cc1cc(C(F)(F)F)nc(N2CCN(S(=O)(=O)c3ccc4c(c3)OC[C@H]3[C@H](CN)OC(=O)N43)CC2)n1 (relative stereo) [Example 002]	0.66 (≈ 1.25 µM)	1.32 (≈ 2.5 µM)	10			
NCCCNC(=O)[C@H]1CC[C@H](C(F)(F)c2cc(Cl)nc(N3CCN(S(=O)(=O)c4ccc5c(c4)OC[C@@H]4[C@H](CN)OC(=O)N54)CC3)c2)CC1 (stereo in doubt) [Example 047, 4-[[2-[4-[[cis-3-(aminomethyl)-1-oxo-3a,4-dihydro-3H-oxazolo[4,3-c][1,4]benzoxazin-7-yl]sulfonyl]piperazin-1-yl]-6-chloro-4-pyridyl]-difluoro-methyl]-N-(3-aminopropyl)cyclohexanecarboxamide]	0.58 (≈ 0.814 µM)	0.59 (≈ 0.828 µM)	7			
O=C1O[C@@H](CO)[C@H]2COc3cc(S(=O)(=O)N4CCN(c5cc(C(F)(F)C6CNC6)cc(Cl)n5)CC4)ccc3N12 [Example 035, (3R,3aR)-7-[4-[4-[azetidin-3-yl(difluoro)methyl]-6-chloro-2-pyridyl]piperazin-1-yl]sulfonyl-3-(hydroxymethyl)-3a,4-dihydro-3H-oxazolo[4,3-c][1,4]benzoxazin-1-one]	2.2 (≈ 3.75 µM)	2.19 (≈ 3.74 µM)	10.9			
